According to PMC11243693, “Synthesis and Biological Evaluation of New Compounds with Nitroimidazole Moiety” (Molecules, 2024):
≈ marks a conversion by molar mass, not a printed value. Read-outs that look alike come from different tables or passages of the source.

How the values were obtained:
Format in all cases: cell-based
[1] = test system: Staphylococcus aureus ATCC 25923; assay: Broth microdilution, S. aureus ATCC 25923; conditions: Sa 25923
Procedure: (§1) The antibacterial activity of the obtained thiosemicarbazides and hydrazide–hydrazones was determined by evaluating their ability to inhibit microbial growth in vitro using the broth microdilution method, according to the guidelines of the European Committee on Antimicrobial Susceptibility Testing (EUCAST). The method involved the preparation of microbial suspensions with a standardized density of 0.5 on the McFarland scale (equivalent to 1.5 × 10^8 colony-forming units/mL for bacteria and […] for fungi). A solution of the test substances was then prepared (initial concentration 1000 µg/mL, diluted in sterile Mueller-Hinton broth for bacteria or Mueller-Hinton with 2% glucose for fungi). The test was carried out in 96-well polystyrene flat-bottom plates (Medlab, Poland) with 100 µL of appropriate sterile microbiological medium in each well. The first wells were filled with 200 µL of the test substance, diluted to the initial concentration, and then double-decreasing dilutions were made under aseptic conditions using an automatic pipette. The final step was the addition of a 10-fold diluted microbial suspension of 2 µL. At the same time, the following controls were included: (a) medium control (100 µL of sterile medium without microorganisms added), (b) microbial viability control, (c) test substance control (dilutions without added micro-organisms), (d) positive control of the drug used in the clinic. The plates thus prepared were incubated for 18 ± 2 h at 35 ± 2 °C under conditions optimal for the growth of the test microorganisms. After incubation, the spectrophotometric absorbance at 570 nm in each well of the plate was read. The aim of this part of the study was to determine two parameters: the minimum inhibitory concentration (MIC) and the minimum bactericidal or fungicidal concentration (MBC/MFC) of the test compound. […] The MBC value was determined by adding 5 µL of the contents of each well of the plate to solid sterile MHA or MHA + 2%glc medium for bacteria and fungi, respectively. The area on the plate where 99.9% inhibition of microbial growth was observed indicated the lethal concentration. In addition, the quotient MBC(MFC)/MIC could be determined to assess the nature of the activity of the test substance. If MBC(MFC)/MIC was <4, the test substance was bactericidal/fungicidal, whereas if MBC(MFC)/MIC was ≥4, it was bacteriostatic/fungistatic. Amoxicillin (Glentham Life Sciences, USA) and nystatin (Glentham Life Sciences, USA) were used as the controls for this assay.
(§2) The test was performed either on bacteria, comprising: Gram-positive (Staphylococcus aureus ATCC 25923, Staphylococcus aureus ATCC 6538, Staphylococcus aureus ATCC 43300 methicillin-resistant MRSA, Staphylococcus epidermidis ATCC 12228, Micrococcus luteus ATCC 10240, Bacillus subtilis ATCC 6633, Bacillus cereus ATCC 10876) and Gram-negative (Escherichia coli ATCC 25922, Pseudomonas aeruginosa ATCC 27853, Proteus mirabilis ATCC 12453, Klebsiella pneumoniae ATCC 13883) or yeast (Candida parapsilosis ATCC 22019, Candida glabrata ATCC 90030, Candida krusei ATCC 14243, Candida glabrata ATCC 15126, Candida tropicalis ATCC 1369, Candida auris CDC B11903, Candida lusitaniae ATCC 3449) reference strains from the American Type Culture Collection (ATCC) or the Centers for Disease Control and Prevention (CDC).

[2] = test system: Staphylococcus aureus ATCC 6538; assay: Broth microdilution, S. aureus ATCC 6538; conditions: Sa 6538
Procedure: as §1, §2

[3] = test system: Staphylococcus aureus ATCC 43300 methicillin-resistant MRSA; assay: Broth microdilution, S. aureus ATCC 43300 MRSA; conditions: Sa 43300 MRSA
Procedure: as §1, §2

[4] = test system: Staphylococcus epidermidis ATCC 12228; assay: Broth microdilution, S. epidermidis ATCC 12228; conditions: Se 12228; for MBC/MIC Ratio: <4 bactericidal, ≥4 bacteriostatic
Procedure: as §1, §2

[5] = test system: Micrococcus luteus ATCC 10240; assay: Broth microdilution, M. luteus ATCC 10240; conditions: Ml 10240; for MBC/MIC Ratio: <4 bactericidal, ≥4 bacteriostatic
Procedure: as §1, §2

[6] = test system: Bacillus subtilis ATCC 6633; assay: Broth microdilution, B. subtilis ATCC 6633; conditions: Bs 6633; for MBC/MIC Ratio: <4 bactericidal, ≥4 bacteriostatic
Procedure: as §1, §2

[7] = test system: Bacillus cereus ATCC 10876; assay: Broth microdilution, B. cereus ATCC 10876; conditions: Bc 10876; for MBC/MIC Ratio: <4 bactericidal, ≥4 bacteriostatic
Procedure: as §1, §2

[8] = test system: Candida parapsilosis ATCC 22019; assay: Broth microdilution, C. parapsilosis ATCC 22019; conditions: Cp 22019
Procedure: as §1, §2

[9] = test system: Candida glabrata ATCC 90030; assay: Broth microdilution, C. glabrata ATCC 90030; conditions: Cg 90030
Procedure: as §1, §2

[10] = test system: Candida krusei ATCC 14243; assay: Broth microdilution, C. krusei ATCC 14243; conditions: Ck 14243
Procedure: as §1, §2

[11] = test system: Candida glabrata ATCC 15126; assay: Broth microdilution, C. glabrata ATCC 15126; conditions: Cg 15126
Procedure: as §1, §2

[12] = test system: Candida tropicalis ATCC 1369; assay: Broth microdilution, C. tropicalis ATCC 1369; conditions: Ct 1369
Procedure: as §1, §2

Candida auris CDC B11903 = assay: Broth microdilution, C. auris CDC B11903; conditions: Ca B11903
Procedure: as §1, §2

[13] = test system: Candida lusitaniae ATCC 3449; assay: Broth microdilution, C. lusitaniae ATCC 3449; conditions: Cl 3449
Procedure: as §1, §2

SMILES | MBC [1] [µg/mL] | MIC [1] [µg/mL] | MIC [2] [µg/mL] | MIC [3] [µg/mL] | MBC [4] [µg/mL] | MIC [4] [µg/mL] | MBC [5] [µg/mL] | MIC [5] [µg/mL] | MBC/MIC Ratio [5] | MBC [6] [µg/mL] | MIC [6] [µg/mL] | MIC [7] [µg/mL] | MIC [8] [µg/mL] | MIC [9] [µg/mL] | MIC [10] [µg/mL] | MIC [11] [µg/mL] | MFC [12] [µg/mL] | MIC [12] [µg/mL] | MIC (Candida auris CDC B11903) [µg/mL] | MIC [13] [µg/mL] | also measured
CC1(C)S[C@@H]2[C@H](NC(=O)[C@H](N)c3ccc(O)cc3)C(=O)N2[C@H]1C(=O)O [AMX, amoxicillin, reference compound] | – | – | – | – | – | – | – | – | – | – | – | – | – | – | – | – | – | – | – | – | MBC ([1]; Staphylococcus aureus, ATCC25923, read-out: MBC): 0.98 µg/mL (≈ 2.68 µM); MIC ([1]; Staphylococcus aureus, ATCC25923, read-out: MIC): 0.98 µg/mL (≈ 2.68 µM); MBC ([2]; Staphylococcus aureus, ATCC6538, read-out: MBC): 0.98 µg/mL (≈ 2.68 µM); MIC ([2]; Staphylococcus aureus, ATCC6538, read-out: MIC): 0.98 µg/mL (≈ 2.68 µM); MBC ([3]; Staphylococcus aureus, read-out: MBC): 31.2 µg/mL (≈ 85.5 µM); MIC ([3]; Staphylococcus aureus, read-out: MIC): 31.2 µg/mL (≈ 85.5 µM); MBC ([4]; Staphylococcus epidermidis, ATCC12228, read-out: MBC): 0.98 µg/mL (≈ 2.68 µM); MIC ([4]; Staphylococcus epidermidis, ATCC12228, read-out: MIC): 0.98 µg/mL (≈ 2.68 µM); MBC ([5]; Micrococcus luteus, ATCC10240, read-out: MBC): 0.98 µg/mL (≈ 2.68 µM); MIC ([5]; Micrococcus luteus, ATCC10240, read-out: MIC): 0.98 µg/mL (≈ 2.68 µM); MBC ([6]; Bacillus subtilis, ATCC6633, read-out: MBC): 125 µg/mL (≈ 342 µM); MIC ([6]; Bacillus subtilis, ATCC6633, read-out: MIC): 125 µg/mL (≈ 342 µM); MBC ([7]; Bacillus cereus, ATCC10876, read-out: MBC): 125 µg/mL (≈ 342 µM); MIC ([7]; Bacillus cereus, ATCC10876, read-out: MIC): 125 µg/mL (≈ 342 µM)
Cn1cc([N+](=O)[O-])nc1C(=O)NNC(=S)Nc1ccccc1 [Compound 2] | >1000 | 500 (≈ 1560 µM) | 1000 (≈ 3120 µM) | >1000 | 1000 (≈ 3120 µM) | 1000 (≈ 3120 µM) | 1000 (≈ 3120 µM) | 1000 (≈ 3120 µM) | 1 | >1000 | 1000 (≈ 3120 µM) | >1000 | 500 (≈ 1560 µM) | >1000 | >1000 | >1000 | >1000 | 500 (≈ 1560 µM) | >1000 | >1000 | MBC [2]: >1000 µg/mL; MBC/MIC Ratio [4]: 1; MFC [8]: >1000 µg/mL
Cn1cc([N+](=O)[O-])nc1C(=O)NNC(=S)Nc1ccc(Cl)cc1 [Compound 5] | >1000 | 62.5 (≈ 176 µM) | 125 (≈ 352 µM) | 125 (≈ 352 µM) | 125 (≈ 352 µM) | 125 (≈ 352 µM) | 125 (≈ 352 µM) | 125 (≈ 352 µM) | 1 | 62.5 (≈ 176 µM) | 62.5 (≈ 176 µM) | 250 (≈ 705 µM) | 62.5 (≈ 176 µM) | >1000 | >1000 | >1000 | >1000 | 500 (≈ 1410 µM) | >1000 | >1000 | MBC [2]: >1000 µg/mL; MBC [3]: >1000 µg/mL; MBC/MIC Ratio [4]: 1; MBC/MIC Ratio [6]: 1; MBC [7]: 250 µg/mL (≈ 705 µM); MBC/MIC Ratio [7]: 1; MFC [8]: >1000 µg/mL
Cn1cc([N+](=O)[O-])nc1C(=O)NNC(=S)Nc1ccccc1F [Compound 6] | >1000 | 250 (≈ 739 µM) | 1000 (≈ 2960 µM) | 1000 (≈ 2960 µM) | 500 (≈ 1480 µM) | 500 (≈ 1480 µM) | 250 (≈ 739 µM) | 250 (≈ 739 µM) | 1 | 500 (≈ 1480 µM) | 250 (≈ 739 µM) | 500 (≈ 1480 µM) | 1000 (≈ 2960 µM) | >1000 | >1000 | >1000 | >1000 | 250 (≈ 739 µM) | >1000 | >1000 | MBC [2]: >1000 µg/mL; MBC [3]: >1000 µg/mL; MBC/MIC Ratio [4]: 1; MBC/MIC Ratio [6]: 2; MBC [7]: 1000 µg/mL (≈ 2960 µM); MBC/MIC Ratio [7]: 2; MFC [8]: >1000 µg/mL
Cn1cc([N+](=O)[O-])nc1C(=O)NNC(=S)Nc1cccc(F)c1 [Compound 7] | >1000 | 250 (≈ 739 µM) | 500 (≈ 1480 µM) | 500 (≈ 1480 µM) | >1000 | 250 (≈ 739 µM) | 250 (≈ 739 µM) | 250 (≈ 739 µM) | 1 | 250 (≈ 739 µM) | 125 (≈ 369 µM) | 500 (≈ 1480 µM) | >1000 | >1000 | >1000 | >1000 | >1000 | 250 (≈ 739 µM) | >1000 | >1000 | MBC [2]: >1000 µg/mL; MBC [3]: >1000 µg/mL; MBC/MIC Ratio [6]: 2; MBC [7]: 500 µg/mL (≈ 1480 µM); MBC/MIC Ratio [7]: 1
Cn1cc([N+](=O)[O-])nc1C(=O)NNC(=S)Nc1ccc(F)cc1 [Compound 8] | >1000 | 250 (≈ 739 µM) | >1000 | 1000 (≈ 2960 µM) | 500 (≈ 1480 µM) | 500 (≈ 1480 µM) | 500 (≈ 1480 µM) | 250 (≈ 739 µM) | 2 | 250 (≈ 739 µM) | 250 (≈ 739 µM) | 500 (≈ 1480 µM) | 1000 (≈ 2960 µM) | >1000 | >1000 | >1000 | >1000 | 250 (≈ 739 µM) | >1000 | >1000 | MBC [3]: >1000 µg/mL; MBC/MIC Ratio [4]: 1; MBC/MIC Ratio [6]: 1; MBC [7]: 1000 µg/mL (≈ 2960 µM); MBC/MIC Ratio [7]: 2; MFC [8]: >1000 µg/mL
C[C@@H]1[C@H](O)[C@@H](C)/C=C/C=C/CC/C=C/C=C/C=C/C=C/C(O[C@H]2O[C@H](C)[C@@H](O)[C@H](N)[C@@H]2O)CC2O[C@](O)(CC(O)C(O)CCC(O)CC(O)CC(O)CC(=O)O[C@H]1C)CC(O)C2C(=O)O (stereo partly drawn) [NYS, nystatin, reference compound] | – | – | – | – | – | – | – | – | – | – | – | – | 12.5 (≈ 13.5 µM) | 1.56 (≈ 1.68 µM) | 12.5 (≈ 13.5 µM) | 1.56 (≈ 1.68 µM) | 0.5 (≈ 0.54 µM) | <0.781 | 6.25 (≈ 6.75 µM) | 1.56 (≈ 1.68 µM) | MFC [8]: 12.5 µg/mL (≈ 13.5 µM); MFC [9]: 3.125 µg/mL (≈ 3.37 µM); MFC [10]: 12.5 µg/mL (≈ 13.5 µM); MFC [11]: 3.125 µg/mL (≈ 3.37 µM); MFC (Candida auris CDC B11903): 15.625 µg/mL (≈ 16.9 µM); MFC [13]: 3.125 µg/mL (≈ 3.37 µM)
